The values below come from patent US20090155367A1, “Occlusion of Fallopian Tubes” (priority 2005, published 2009).

Experiment [1] relates to Fallopian tubes. Conditions: even when massive tubal necrosis was achieved; cited from earlier work.
Experiment [2] deals with beef muscle tissue (fillet mignon). The experiment in a line: Tissue necrosis with AgNO3 bearing beads placed on beef muscle tissue. Also noted: key: +: slight visible pitting of the tissue surface; ++: moderate pitting of tissue surface with slight blackening of the tissue; +++: significant pitting with moderate blackening of the tissue; ++++: severe pitting with complete blackening of the tissue; +++++: severe pitting with complete blackening of the tissue, spreading beyond the point of contact; −−−: no observed necrosis. Conditions: tissue under bead on beef muscle surface. The source says:
The degree of necrosis was rated as follows: slight visible pitting of the tissue surface (+); moderate pitting of tissue surface with slight blackening of the tissue (++); significant pitting with moderate blackening of the tissue (+++); severe pitting with complete blackening of the tissue (++++); severe pitting with complete blackening of the tissue, spreading beyond the point of contact (+++++); and no observed necrosis (−−−)

On to `O=[N+]([O-])[O-].[Ag+]` [AgNO3 Crystal, silver nitrate], for which, in experiment [1], the “Fallopian tube closure after application” value was “a significant proportion of Fallopian tubes remained open”. In addition, the “Tissue Necrosis (degree of necrosis)” value was “+++” in experiment [2] (Time 5 minutes), “++++” in experiment [2] (Time 10 minutes), “+++++” in experiment [2] (Time 15 minutes) and “+++++” in experiment [2] (Time 20 minutes).
